In patent publication EP0249401A1, “Antianemic agent” (YAMANOUCHI PHARMACEUTICAL CO. LTD., priority 1986, dated 1987):

Assay: Acute toxicity (LD50) on intraperitoneal injection into mice
Details: mouse, in vivo, ip

CC(C)OC(=O)CNC(=O)[C@H](CS)NC(=O)CC[C@H](N)C(=O)O [isopropyl ester, isopropyl y-L-glutamyl-L-cysteinylglycinate]
LD50: ~5300 mg/kg
